In patent US12577469B2, “Compound, composition, cured product, optically anisotropic body, optical element, and light guide element” (FUJIFILM Corporation, priority 2021, dated 2026):

Tests used:
[1] = Evaluation of liquid crystallinity of compound (hot stage, polarization microscope); format: physicochemical; set-up: key: A case of having liquid crystallinity was evaluated as A; a case of having no liquid crystallinity was evaluated as B; details: compound alone, heated on hot stage
Procedure: Each compound was heated on a hot stage and observed with a polarization microscope, and the phase transition temperature was measured to evaluate the presence or absence of liquid crystallinity. A case of having liquid crystallinity was evaluated as A, and a case of having no liquid crystallinity was evaluated as B. The results are shown in the column of “Liquid crystallinity” of “Compound 2” in Table 1.

[2] = Evaluation of solubility in cyclopentanone (precipitation concentration); format: physicochemical; details: precipitation concentration in cyclopentanone at room temperature (25° C.)

Row | SMILES | Compound 2 Liquid crystallinity [1] | Compound 2 Solubility [2]
1 | CC(=O)OCCc1ccc(C#Cc2ccc(OCc3ccc(C#Cc4ccc(COc5ccc(C#Cc6ccc(CCOC(C)=O)cc6)cc5C)cc4)cc3)c(C)c2)cc1 [Compound B-1] | A | B (the solubility in a case where the precipitation concentration was 5% by mass or less was evaluated as B)
2 | C=CC(=O)OCCc1ccc(C#Cc2ccc(OCc3ccc(C#Cc4ccc(COc5ccc(C#Cc6ccc(CCOC(=O)C=C)cc6)cc5C)cc4)cc3)c(C)c2)cc1 [Compound B-2] | A | B (the solubility in a case where the precipitation concentration was 5% by mass or less was evaluated as B)
3 | C=CC(=O)OCCSc1ccc(C#Cc2ccc(OCc3ccc(C#Cc4ccc(COc5ccc(C#Cc6ccc(SCCOC(=O)C=C)cc6)cc5C)cc4)cc3)c(C)c2)cc1 [Compound B-3] | A | B (the solubility in a case where the precipitation concentration was 5% by mass or less was evaluated as B)
4 | C=CC(=O)OCCSc1ccc(C#Cc2ccc(OCc3ccc(C#Cc4ccc(COc5ccc(C#Cc6ccc(SCCOC(=O)C=C)cc6)cc5C(=O)OC)cc4)cc3)c(C(=O)OC)c2)cc1 [Compound B-4] | A | A (the solubility in a case where the precipitation concentration was more than 5% by mass was evaluated as A)
